In ChEMBL document CHEMBL1909046, “DrugMatrix in vitro pharmacology data”:

Legend:
[1] = molecular target: Voltage-gated inwardly rectifying potassium channel KCNH2 (Homo sapiens, UniProt Q12809); conditions: hek293; also: in other assays of this panel Not Active means under 50% inhibition at 10 µM
[2] = DRUGMATRIX: Glutamate, AMPA radioligand binding (ligand: [3H] AMPA); assay type: cell membranes, Rattus norvegicus, Wistar, Cerebral cortex, Membrane; conditions: Not Active = under 50% inhibition at 10 µM
Cathepsin G = molecular target: T1, Cathepsin G (Homo sapiens, UniProt P08311); assay type: tissue-based; conditions: neutrophil;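 also: inhibition of Cathepsin G enzyme activity, tested on an AMC-conjugated peptide substrate; in other assays of this panel Not Active means under 50% inhibition at 10 µM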
T1 sequence (P08311 whole entry): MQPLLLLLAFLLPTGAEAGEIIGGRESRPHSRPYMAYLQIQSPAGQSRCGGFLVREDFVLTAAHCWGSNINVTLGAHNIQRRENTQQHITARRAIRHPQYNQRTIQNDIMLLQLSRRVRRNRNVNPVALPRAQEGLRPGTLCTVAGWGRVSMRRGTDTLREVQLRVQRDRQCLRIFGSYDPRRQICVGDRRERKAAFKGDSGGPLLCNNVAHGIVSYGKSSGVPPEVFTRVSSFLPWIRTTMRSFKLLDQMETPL

B2 bradykinin receptor = molecular target: T2, B2 bradykinin receptor (Homo sapiens, UniProt P30411); assay type: cell membranes, Membrane; conditions: chem-1; also: in other assays of this panel Not Active means under 50% inhibition at 10 µM
T2 sequence (P30411 whole entry): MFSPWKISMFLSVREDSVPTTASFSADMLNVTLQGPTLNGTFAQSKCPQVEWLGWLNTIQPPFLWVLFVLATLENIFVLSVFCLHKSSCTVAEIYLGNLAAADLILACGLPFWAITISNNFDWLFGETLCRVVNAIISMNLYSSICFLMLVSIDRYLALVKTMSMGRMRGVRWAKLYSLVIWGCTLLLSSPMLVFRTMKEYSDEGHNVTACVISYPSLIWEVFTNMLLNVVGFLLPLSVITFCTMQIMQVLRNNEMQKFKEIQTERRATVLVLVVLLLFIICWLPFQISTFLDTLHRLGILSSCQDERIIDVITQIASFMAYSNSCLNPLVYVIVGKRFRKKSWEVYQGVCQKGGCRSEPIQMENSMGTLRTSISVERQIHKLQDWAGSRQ

[3] = molecular target: cGMP-specific 3',5'-cyclic phosphodiesterase (Homo sapiens, UniProt O76074); experiment: DRUGMATRIX: Phosphodiesterase PDE5 enzyme inhibition (substrate: [3H]cGMP + cGMP); assay type: tissue-based; conditions: platelet; Not Active = under 50% inhibition at 10 µM
Endothelin-1 receptor = molecular target: T3, Endothelin-1 receptor (Homo sapiens, UniProt P25101); assay type: cell membranes, CHO-K1, Membrane; conditions: cho-k1; also: in other assays of this panel Not Active means under 50% inhibition at 10 µM
T3 sequence (P25101 whole entry): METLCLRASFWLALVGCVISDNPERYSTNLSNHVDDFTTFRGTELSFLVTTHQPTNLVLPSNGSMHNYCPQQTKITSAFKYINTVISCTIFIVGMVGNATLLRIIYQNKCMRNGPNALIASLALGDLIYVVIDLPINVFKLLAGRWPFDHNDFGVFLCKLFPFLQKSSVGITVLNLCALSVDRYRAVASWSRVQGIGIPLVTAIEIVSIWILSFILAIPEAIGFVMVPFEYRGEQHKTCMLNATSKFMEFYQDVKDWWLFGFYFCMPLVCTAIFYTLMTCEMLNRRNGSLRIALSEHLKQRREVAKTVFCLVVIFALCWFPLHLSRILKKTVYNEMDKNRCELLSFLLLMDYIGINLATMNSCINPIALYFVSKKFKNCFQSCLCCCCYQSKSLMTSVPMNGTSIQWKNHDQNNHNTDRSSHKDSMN

[4] = molecular target: Beta-2 adrenergic receptor (Homo sapiens, UniProt P07550); experiment: DRUGMATRIX: Adrenergic beta2 radioligand binding (ligand: [3H] CGP-12177); assay type: cell membranes, Membrane; conditions: cho; Not Active = under 50% inhibition at 10 µM
[5] = DRUGMATRIX: ATPase, Na+/K+ enzyme inhibition (substrate: ATP); assay type: tissue-based, Sus scrofa, Heart; conditions: Not Active = under 50% inhibition at 10 µM

Sequence of Voltage-gated inwardly rectifying potassium channel KCNH2 (Q12809 whole entry): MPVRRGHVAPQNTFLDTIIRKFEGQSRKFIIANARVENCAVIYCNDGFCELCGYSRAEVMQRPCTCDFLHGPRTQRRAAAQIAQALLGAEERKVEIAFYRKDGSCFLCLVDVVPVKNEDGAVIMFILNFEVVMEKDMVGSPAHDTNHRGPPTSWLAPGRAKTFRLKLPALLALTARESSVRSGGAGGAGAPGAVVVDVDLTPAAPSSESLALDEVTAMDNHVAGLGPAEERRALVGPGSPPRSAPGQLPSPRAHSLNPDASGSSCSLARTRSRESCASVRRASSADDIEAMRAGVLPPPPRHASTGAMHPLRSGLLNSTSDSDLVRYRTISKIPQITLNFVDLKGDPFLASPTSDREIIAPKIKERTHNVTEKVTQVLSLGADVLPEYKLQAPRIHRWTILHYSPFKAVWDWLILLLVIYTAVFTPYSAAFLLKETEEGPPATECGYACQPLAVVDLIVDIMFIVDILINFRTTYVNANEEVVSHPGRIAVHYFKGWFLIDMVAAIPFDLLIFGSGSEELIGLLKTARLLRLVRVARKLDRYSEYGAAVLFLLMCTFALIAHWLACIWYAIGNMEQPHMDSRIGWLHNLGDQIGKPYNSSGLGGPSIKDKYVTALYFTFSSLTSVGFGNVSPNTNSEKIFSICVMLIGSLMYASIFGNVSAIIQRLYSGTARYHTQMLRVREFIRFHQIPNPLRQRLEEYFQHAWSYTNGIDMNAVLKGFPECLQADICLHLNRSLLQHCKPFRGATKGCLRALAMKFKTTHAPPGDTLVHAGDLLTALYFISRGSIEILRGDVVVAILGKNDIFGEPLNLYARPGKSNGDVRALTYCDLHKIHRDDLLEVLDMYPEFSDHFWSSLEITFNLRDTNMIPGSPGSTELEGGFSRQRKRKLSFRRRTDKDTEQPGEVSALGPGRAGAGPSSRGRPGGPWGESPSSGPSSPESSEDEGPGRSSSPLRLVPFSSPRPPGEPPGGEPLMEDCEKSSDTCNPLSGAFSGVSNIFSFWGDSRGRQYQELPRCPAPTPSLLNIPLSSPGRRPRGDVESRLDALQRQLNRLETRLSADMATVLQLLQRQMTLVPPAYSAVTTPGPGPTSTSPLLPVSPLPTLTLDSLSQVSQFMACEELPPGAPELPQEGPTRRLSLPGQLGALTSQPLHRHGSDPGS

CO[C@H]1/C=C/O[C@@]2(C)Oc3c(C)c(O)c4c(O)c(c(/C=N/N5CCN(C)CC5)c(O)c4c3C2=O)NC(=O)/C(C)=C\C=C\[C@H](C)[C@H](O)[C@@H](C)[C@@H](O)[C@@H](C)[C@H](OC(C)=O)[C@@H]1C [RIFAMPIN]
Not Active: IC50 [1] | Ki [1] | IC50 [2] | Ki [2] | IC50 (Cathepsin G) | IC50 (B2 bradykinin receptor) | IC50 [3] | IC50 (Endothelin-1 receptor) | IC50 [4] | IC50 [5] | Ki [5]

C=CCC1(C(C)CCC)C(=O)NC(=O)NC1=O (centres undefined) [SECOBARBITAL]
Not Active: IC50 [1] | Ki [1] | IC50 [2] | Ki [2] | IC50 (Cathepsin G) | IC50 (B2 bradykinin receptor) | IC50 [3] | IC50 (Endothelin-1 receptor) | IC50 [4] | IC50 [5] | Ki [5]

CSc1ccc(/C=C2/C(C)=C(CC(=O)O)c3cc(F)ccc32)cc1 [SULINDAC SULFIDE]
Not Active: IC50 [1] | Ki [1] | IC50 [2] | Ki [2] | IC50 (Cathepsin G) | IC50 (B2 bradykinin receptor) | IC50 [3] | IC50 (Endothelin-1 receptor) | IC50 [4] | IC50 [5] | Ki [5]

Nc1c2c(nc3ccccc13)CCCC2 [TACRINE]
Not Active: IC50 [1] | Ki [1] | IC50 [2] | Ki [2] | IC50 (Cathepsin G) | IC50 (B2 bradykinin receptor) | IC50 [3] | IC50 (Endothelin-1 receptor) | IC50 [4] | IC50 [5] | Ki [5]

CC(C)N1CCN(c2ccc(OCC3COC(Cn4cncn4)(c4ccc(Cl)cc4Cl)O3)cc2)CC1 (centres undefined) [TERCONAZOLE]
Not Active: IC50 [1] | Ki [1] | IC50 [2] | Ki [2] | IC50 (Cathepsin G) | IC50 (B2 bradykinin receptor) | IC50 [3] | IC50 (Endothelin-1 receptor) | IC50 [4] | IC50 [5] | Ki [5]

Cc1cccc(N(C)C(=S)Oc2ccc3ccccc3c2)c1 [TOLNAFTATE]
Not Active: IC50 [1] | Ki [1] | IC50 [2] | Ki [2] | IC50 (Cathepsin G) | IC50 (B2 bradykinin receptor) | IC50 [3] | IC50 (Endothelin-1 receptor) | IC50 [4] | IC50 [5] | Ki [5]

NC[C@H]1CC[C@H](C(=O)O)CC1 [TRANEXAMIC ACID]
Not Active: IC50 [1] | Ki [1] | IC50 [2] | Ki [2] | IC50 (Cathepsin G) | IC50 (B2 bradykinin receptor) | IC50 [3] | IC50 (Endothelin-1 receptor) | IC50 [4] | IC50 [5] | Ki [5]

CC1(C)O[C@@H]2C[C@H]3[C@@H]4CCC5=CC(=O)C=C[C@]5(C)[C@@]4(F)[C@@H](O)C[C@]3(C)[C@]2(C(=O)CO)O1 [TRIAMCINOLONE ACETONIDE]
Not Active: IC50 [1] | Ki [1] | IC50 [2] | Ki [2] | IC50 (Cathepsin G) | IC50 (B2 bradykinin receptor) | IC50 [3] | IC50 (Endothelin-1 receptor) | IC50 [4] | IC50 [5] | Ki [5]

NS(=O)(=O)c1cc2c(cc1Cl)NC(C(Cl)Cl)NS2(=O)=O (centres undefined) [TRICHLORMETHIAZIDE]
Not Active: IC50 [1] | Ki [1] | IC50 [2] | Ki [2] | IC50 (Cathepsin G) | IC50 (B2 bradykinin receptor) | IC50 [3] | IC50 (Endothelin-1 receptor) | IC50 [4] | IC50 [5] | Ki [5]

Cc1c(C)c2c(c(C)c1O)CCC(C)(COc1ccc(CC3SC(=O)NC3=O)cc1)O2 (centres undefined) [TROGLITAZONE]
Not Active: IC50 [1] | Ki [1] | IC50 [2] | Ki [2] | IC50 (Cathepsin G) | IC50 (B2 bradykinin receptor) | IC50 [3] | IC50 (Endothelin-1 receptor) | IC50 [4] | IC50 [5] | Ki [5]

N[C@@H]1[C@H]2CN(c3nc4c(cc3F)c(=O)c(C(=O)O)cn4-c3ccc(F)cc3F)C[C@@H]12 [TROVAFLOXACIN]
Not Active: IC50 [1] | Ki [1] | IC50 [2] | Ki [2] | IC50 (Cathepsin G) | IC50 (B2 bradykinin receptor) | IC50 [3] | IC50 (Endothelin-1 receptor) | IC50 [4] | IC50 [5] | Ki [5]

N#CC(C#N)=Cc1ccc(O)c(O)c1 [TYRPHOSTIN 23]
Not Active: IC50 [1] | Ki [1] | IC50 [2] | Ki [2] | IC50 (Cathepsin G) | IC50 (B2 bradykinin receptor) | IC50 [3] | IC50 (Endothelin-1 receptor) | IC50 [4] | IC50 [5] | Ki [5]

CC[C@]1(O)C[C@H]2CN(CCc3c([nH]c4ccccc34)[C@@](C(=O)OC)(c3cc4c(cc3OC)N(C=O)[C@H]3[C@@](O)(C(=O)OC)[C@H](OC(C)=O)[C@]5(CC)C=CCN6CC[C@]43[C@@H]65)C2)C1 [VINCRISTINE]
Not Active: IC50 [1] | Ki [1] | IC50 [2] | Ki [2] | IC50 (Cathepsin G) | IC50 (B2 bradykinin receptor) | IC50 [3] | IC50 (Endothelin-1 receptor) | IC50 [4] | IC50 [5] | Ki [5]

SODIUM NITROPRUSSIDE
Not Active: IC50 [1] | Ki [1] | IC50 [2] | Ki [2] | IC50 (Cathepsin G) | Ki (Cathepsin G) | IC50 (B2 bradykinin receptor) | Ki (B2 bradykinin receptor) | IC50 [3] | Ki [3] | IC50 (Endothelin-1 receptor) | Ki (Endothelin-1 receptor) | IC50 [4] | Ki [4] | IC50 [5] | Ki [5]
